Data on 1 compound can be found in article PMC8579695, “The Stringent Response Inhibits 70S Ribosome Formation in Staphylococcus aureus by Impeding GTPase-Ribosome Interactions” (mBio, 2021).

The structures appear in SMILES notation.

This experiment deals with Era-His association to 30S ribosomes in S. aureus USA300. Briefly: In vivo ribosome association of Era-His to 30S in S. aureus cells. In kind it is cell-based, Staphylococcus aureus. The conditions noted are these: USA300 (p)ppGpp-null Δera iTET-era-His; 0.05 or 60 μg/ml mupirocin for 15 min. The source says:
Upon induction of the stringent response, cellular levels of (p)ppGpp increase, while concentration of GTP drops ([38]). Having observed decreased association of RA-GTPases to ribosomal subunits in vitro, we wanted to examine the interaction under more physiologically relevant conditions. To investigate RA-GTPases interactions with the ribosome in the bacterial cell, we used an era deletion mutant in a community-acquired methicillin-resistant S. aureus (CA-MRSA) USA300 strain that we had previously constructed ([10]). […] To establish whether induction of the stringent response in bacterial cells leads to a decrease in the association of Era to the 30S subunit, the era mutant was complemented with an Atet-inducible 6×His-tagged version of era using the iTET vector. […] Normalized 30S pools were analyzed for associated Era-His using α-His Western immunoblotting (Fig. 4C). Crude lysates sampled prior to loading on the sucrose gradients were also analyzed to ensure equal loading and equal expression of Era-His between samples (see Fig. S5B). […]
FIG 4 Association of Era to the 30S subunit is reduced under stringent conditions. […] RNA content was analyzed at an absorbance of 260 nm. […] Ribosomal subunits were separated, and the amount of Era-His associated in each strain was detected using HRP-conjugated α-His antibodies. […]

With `C/C(=C\C(=O)OCCCCCCCCC(=O)O)C[C@@H]1OC[C@H](C[C@@H]2O[C@H]2[C@@H](C)[C@H](C)O)[C@@H](O)[C@H]1O` [mupirocin], the “ribosome association of Era-His after treatment, (p)ppGpp-null strain” value is “decrease is not seen”.
